Experimental findings from article PMC3070195 (Bioconjugate chemistry, 2010) are described below.

The test system of one data set is Vero cells. The data set can be described thus: Cytotoxicity in Vero cells. Format: cell-based, African green monkey. The following applies: 3 days, hemacytometer; for IC50: read-out: Cytotoxicity IC50 VERO cells.
For a further data set, the system named is PBM cells. The data set can be described thus: Cytotoxicity in uninfected PHA-stimulated PBM cells. Conditions: 6 days, cell growth, trypan blue exclusion. Format: cell-based, human.
Test in data set [1]: as above
In kind it is cell-based, human. Conditions: human, uninfected PHA-stimulated PBM cells.

Data set [2] in a line: Cytotoxicity in Vero cells. Format: cell-based, African green monkey. Conditions: African green monkey, Vero (kidney) cells.
The nature of data set [3]: Cytotoxicity in CEM cells. Conditions: human, CEM (CEM-CCRF) T-lymphoblastoid cells. In kind it is cell-based.

By IC50 is commonly meant the concentration that gives 50% inhibition. Turning to `Cc1cn([C@H]2C=CC(COP(=O)(O)OC[C@H]3O[C@H](O)[C@H](O)[C@@H](O)[C@@H]3O)O2)c(=O)[nH]c1=O` (stereo partly drawn) [10b, 2′,3′-Didehydro-2′,3′-dideoxythymidine 5′-(α/β-D-glucopyranos-6-yl) phosphate], in the data set on Vero cells, the “Cytotoxicity IC50 VERO cells” value is reported as “no cytotoxicity” and the IC50 is above 100 µM. Moreover, the “Cytotoxicity IC50 PBM cells” value with PBM cells is “no cytotoxicity”. Compound `Cc1cn([C@H]2C[C@H](N=[N+]=[N-])[C@@H](CO)O2)c(=O)[nH]c1=O` [AZT, zidovudine] displayed an IC50 at 6 days in data set [1] above 100 µM. For the compound `Nc1ncnc2c1ncn2[C@H]1CC[C@@H](CO)O1` [ddA], in the data set with Vero cells, the IC50 was above 100 µM. The same measure, in the same setting: under `O=c1[nH]c(=O)n([C@H]2C[C@H](O)[C@@H](COP(=O)(O)OC[C@H]3OC(O)[C@H](O)[C@@H](O)[C@@H]3O)O2)cc1I` (stereo partly drawn) [10c, 2′-Deoxy-5-iodouridine 5′-(α/β-D-glucopyranos-6-yl) phosphate] stands above 100 µM; under `NC(=O)c1ncn([C@@H]2O[C@H](COP(=O)(O)OC[C@H]3OC(O)[C@H](O)[C@@H](O)[C@@H]3O)[C@@H](O)[C@H]2O)n1` (stereo partly drawn) [10g, 1′-(3-Carbamoyl-1,2,4-triazoyl)-β-D-ribofuranose 5′-(α/β-D-glucopyranos-6-yl) phosphate], above 100 µM. On the same count and under the same terms, under `O=c1ccn([C@H]2C=C[C@@H](CO)O2)c(=O)[nH]1` [d4U] stands above 100 µM; under `O=c1[nH]c(=O)n([C@H]2C[C@H](O)[C@@H](CO)O2)cc1I` [IdUrd], above 100 µM. Same read-out and setting: under `Nc1ncnc2c1ncn2[C@H]1CC[C@@H](COP(=O)(O)OC[C@H]2OC(O)[C@H](O)[C@@H](O)[C@@H]2O)O1` (stereo partly drawn) [10f, 2′,3′-Dideoxyadenosine 5′-(α/β-D-glucopyranos-6-yl) phosphate] stands 73.2 µM; under `O=c1[nH]cnc2c1ncn2[C@H]1CC[C@@H](COP(=O)(O)OC[C@H]2OC(O)[C@H](O)[C@@H](O)[C@@H]2O)O1` (stereo partly drawn) [10e, 2′,3′-Dideoxyinosine 5′-(α/β-D-glucopyranos-6-yl) phosphate], above 100 µM. For `O=c1[nH]c(=O)n([C@H]2C[C@H](OP(=O)(O)OC[C@H]3O[C@H](O)[C@H](O)[C@@H](O)[C@@H]3O)[C@@H](CO)O2)cc1I` [10d, 2′-Deoxy-5-iodouridine 3′-(α/β-D-glucopyranos-6-yl) phosphate], the IC50 in the data set with Vero cells is above 100 µM. On the same count and under the same terms, under `Cc1cn([C@H]2C=C[C@@H](CO)O2)c(=O)[nH]c1=O` [d4T] stands above 100 µM. For `O=c1[nH]cnc2c1ncn2[C@H]1CC[C@@H](CO)O1` [ddI], the IC50 in the data set on Vero cells is above 100 µM. The compound `NC(=O)c1ncn([C@@H]2O[C@H](CO)[C@@H](O)[C@H]2O)n1` [Virazole] returned a 50% inhibitory concentration (IC50) at 3 days in data set [2] above 100 µM. Besides, the IC50 at 6 days in data set [1] is above 100 µM; in data set [3] it was 53 µM. As for `O=c1ccn([C@H]2C=C[C@@H](COP(=O)(O)OC[C@H]3OC(O)[C@H](O)[C@@H](O)[C@@H]3O)O2)c(=O)[nH]1` (stereo partly drawn) [10a, 2′,3′-Didehydro-2′,3′-dideoxyuridine 5′-(α/β-D-glucopyranos-6-yl) phosphate], the IC50 in the data set with Vero cells is above 100 µM. `Nc1ncnc2c1ncn2[C@@H]1O[C@H](CO)[C@@H](O)[C@@H]1O` [Ara-A, ara-adenosine] showed an IC50 at 3 days in data set [2] above 100 µM. In addition, the IC50 at 6 days in data set [1] is 26 µM; in data set [3], 26.2 µM.

Turning to `Nc1ccn([C@@H]2O[C@H](COP(=O)(O)OC[C@H]3OC(O)[C@H](O)[C@@H](O)[C@@H]3O)[C@@H](O)[C@@H]2O)c(=O)n1` (stereo partly drawn) [10i, 1′-Cytosinyl-β-D-arabinofuranose 5′-(α/β-D-glucopyranos-6-yl) phosphate], the IC50 in the data set on Vero cells is below 1 µM. Still for that read-out and setting: with `Nc1ncnc2c1ncn2[C@@H]1O[C@H](COP(=O)(O)OC[C@H]2OC(O)[C@H](O)[C@@H](O)[C@@H]2O)[C@@H](O)[C@@H]1O` (stereo partly drawn) [10h, 1′-Adeninyl-β-D-arabinofuranose 5′-(α/β-D-glucopyranos-6-yl) phosphate] the figure was above 100 µM. For `Nc1ccn([C@@H]2O[C@H](CO)[C@@H](O)[C@@H]2O)c(=O)n1` [Ara-C, Ara-cytidine], the IC50 at 6 days in data set [1] is 57 µM; in data set [3], below 0.1 µM.
